PMC9050923, “6,N^2-Diaryl-1,3,5-triazine-2,4-diamines: synthesis, antiproliferative activity and 3D-QSAR modeling” (RSC Advances, 2020)

What was measured:
Type in all cases: cell-based
MCF-7 = experiment: MTT assay, MCF-7 breast cancer cells; settings: Homo sapiens, MCF7, 10 μM, 72 h after the treatment, mean of three independent experiments, read-out: Percentage of cell viability MCF-7
Description: (§1) The prepared compounds 1–126 were tested on three breast cancer cell lines namely, MDA-MB231, SKBR-3 and MCF-7 using MTT assay. SKBR-3 and MCF-7 cell lines are estrogen and progesterone hormone positive cell lines often used as a model for the hormone therapy.[18] MDA-MB231 is triple negative breast cancer cell line, which is negative to estrogen and progesterone receptors and human epidermal growth factor receptor 2, a perfect model for chemotherapy.[18] Initially, all the prepared compounds 1–126 were tested on these three cancer cell lines at the screening concentration (10 μM) and percentage of cell viability was calculated 72 h after the treatment (Table 1).
(§2) The growth inhibitory effect of the compounds was determined on breast tumor cell line (MDA-MB231, SKBR-3 and MCF-7) at different concentrations with methotrexate and nilotinib as positive controls (Table 2).
(§3) The cytotoxic activity of 6,N^2-diaryl-1,3,5-triazine-2,4-diamines (1–126) was evaluated against three breast carcinoma cell lines (MDA-MB231, SKBR-3, and MCF-7) and normal breast cell line (MCF-10A) by MTT assay.[22] All cells were obtained from the American Type Culture Collection and were grown in 10% fetal bovine serum and 1% pen-strep antibiotic supplemented media (DMEM for MDA-MB231 and SKBR-3, RPMI for MCF-7, and MEGM for MCF-10A). For MTT assay, 20 000 to 75 000 cells per mL (based on the doubling time for each cell line) were seeded in 96 well plates and incubated for 24 h at 37 °C in 5% CO2 incubator. Then, compounds at different concentrations were added followed by the incubation at 37 °C for 72 h. After that, MTT solution (0.5 mg mL^−1) was added and the plates were incubated for another 4 h. The supernatant was then discarded and 100 μL of DMSO was added to each well. The plates were then read by Tecan NanoQuant (model: infinite m200 pro) plate reader and absorbance was measured at 570 nm. GI50 values were calculated using sigmoidal concentration–response curves (see ESI ^†) generated using the GraphPad Prism 7 program. Three independent experiments were carried out and the data were represented as mean of the three experiments.

SKBR-3 = experiment: MTT assay, SKBR-3 breast cancer cells; settings: Homo sapiens, SK-BR-3; 10 μM, 72 h after the treatment, MTT, mean of three independent experiments; read-out: Percentage of cell viability SKBR-3
Description: as §1, §2, §3

MDA-MB231 = experiment: MTT assay, MDA-MB231 breast cancer cells; settings: Homo sapiens, MDA-MB-231; 10 μM, 72 h after the treatment, MTT, mean of three independent experiments; read-out: Percentage of cell viability MDA-MB231
Description: as §1, §2, §3

SMILES | viability at 10 µM (MCF-7) | viability at 10 µM (SKBR-3) | viability at 10 µM (MDA-MB231)
Nc1nc(Nc2cccc(Cl)c2)nc(-c2ccc(F)cc2)n1 [Compound 25] | 95% | 88% | 73%
Cc1ccc(Nc2nc(N)nc(-c3ccc(C)cc3)n2)cc1 [Compound 64] | 86% | 92% | 59%
COc1ccc(Nc2nc(N)nc(-c3ccc(Br)cc3)n2)cc1 [Compound 52] | 100% | 91% | 56%
Nc1nc(Nc2ccccc2F)nc(-c2ccc(OC(F)(F)F)cc2)n1 [Compound 90] | 90% | 80% | 60%
COc1ccc(-c2nc(N)nc(Nc3ccc(F)cc3)n2)cc1 [Compound 72] | 100% | 100% | 68%
Nc1nc(Nc2ccc(Br)cc2)nc(-c2ccc(OC(F)(F)F)cc2)n1 [Compound 93] | 90% | 96% | 83%
Nc1nc(Nc2ccc(OC(F)(F)F)cc2)nc(-c2ccc(OC(F)(F)F)cc2)n1 [Compound 97] | 100% | 80% | 92%
Nc1nc(Nc2ccc(Br)cc2)nc(-c2ccc(Cl)cc2)n1 [Compound 40] | 92% | 100% | 80%
Cc1ccc(Nc2nc(N)nc(-c3ccc(F)cc3)n2)cc1 [Compound 28] | 88% | 90% | 99%
CC(C)(C)c1ccc(-c2nc(N)nc(Nc3ccc(Br)cc3)n2)cc1 [Compound 108] | 99% | 98% | 59%
Cc1ccc(Nc2nc(N)nc(-c3ccc(OCc4ccccc4)cc3)n2)cc1 [Compound 113] | 100% | 94% | 82%
Cc1cccc(-c2nc(N)nc(Nc3ccc(Cl)cc3)n2)c1 [Compound 54] | 76% | 93% | 100%
COc1ccccc1Nc1nc(N)nc(-c2ccc(F)cc2)n1 [Compound 29] | 96% | 81% | 60%
COc1ccccc1Nc1nc(N)nc(-c2ccc(Cl)cc2)n1 [Compound 41] | 100% | 89% | 83%
Cc1ccc(Nc2nc(N)nc(-c3ccc(OC(F)(F)F)cc3)n2)cc1 [Compound 94] | 97% | 87% | 79%
Cc1ccc(-c2nc(N)nc(Nc3ccc(OC(F)(F)F)cc3)n2)cc1 [Compound 67] | 93% | 84% | 92%
Nc1nc(Nc2ccccc2F)nc(-c2ccc(C(F)(F)F)cc2)n1 [Compound 83] | 93% | 71% | 55%
Nc1nc(Nc2ccccc2Cl)nc(-c2ccc(Br)cc2)n1 [Compound 48] | 100% | 93% | 90%
Nc1nc(Nc2cccnc2)nc(-c2ccc(F)cc2)n1 [Compound 33] | 85% | 87% | 74%
Nc1nc(Nc2ccc(F)cc2)nc(-c2ccc(F)cc2)n1 [Compound 23] | 93% | 100% | 81%
Nc1nc(Nc2ccc(F)cc2)nc(-c2cccs2)n1 [Compound 117] | 92% | 86% | 100%
